# Test results as given in patent US20070149508A1, “Six membered heteroaromatic inhibitors targeting resistant kinase mutations” (TargeGen, Inc., priority 2005, published 2007).
# Where a name gives a salt, the structure may show the parent alone.
# Assays:
# Abl kinase = Abl kinase (Homo sapiens, UniProt P00519); assay: biochemical; conditions: Abl IC50 (nM), Abl kinase (Invitrogen, 20 ng/well), Abltide 100 μM, ATP 500 nM, 37° C. for 60 minutes, top concentration 10 uM
# Experimental: Kinase activity was assessed using luminescent detection (KinaseGlo, Promega) of residual ATP concentration in reaction mixtures containing optimized levels of kinase, substrate, ATP, compound and appropriate buffers. Kinase, substrate and ATP concentrations were determined per the supplier's recommendations. Briefly, this involved running concentration curves to select for optimal signal.
# The reaction mixture (50 ul/well) consisted of Abl kinase (Invitrogen, 20 ng/well); Abltide peptide substrate (Upstate, 100 μM) and ATP (500 nM). Each compound was evaluated at a top concentration of 10 uM with 1:3 dilution steps, 10 dilution steps total. Compound was diluted into DMSO and transferred to the reaction plate, resulting in a final DMSO concentration of 2%. This amount of DMSO was determined not to interfere with the enzyme. The reaction was conducted at 37° C. for 60 minutes. The degree of inhibition was assessed using IC50 determinations, which were obtained using GraphPad Prism4.
# Abl (T315I) = molecular target: T1, Abl (T315I) (Homo sapiens, UniProt P00519, T315I); assay: Abl (T315I) Kinase Assay (KinaseGlo luminescent detection of residual ATP); format: biochemical; conditions: Abl (T315I) IC50 (nM), Abl (T315I) (Upstate, 17 ng/well), Abltide 100 uM, ATP 500 nM, 60 minutes at 37° C.
# T1 construct: purchased Upstate
# Experimental: The assay was performed similarly to the Abl kinase assay. Abl (T315I) (Upstate, 17 ng/well); Abltide substrate (100 uM) and ATP (500 nM) comprised the reaction mixture. Compound was similarly diluted, and the reaction plate was incubated for 60 minutes at 37° C.
IC50 (Abl kinase) [nM],IC50 (Abl (T315I)) [nM],Structure (SMILES)
967,332,O=C(Nc1nc2ccc(/C=C/c3cnc(Nc4ccc(S(=O)(=O)C5CCNCC5)cc4)nc3)cc2s1)c1cccc(C(F)(F)F)c1 [N-(6-((E)-2-(2-(4-(piperidin-4-ylsulfonyl)phenylamino)pyrimidin-5-(trifluoromethyl)benzamide Hydrochloride]
629,2740,O=C(Nc1nc2ccc(/C=C/c3cnc(Nc4ccc(S(=O)(=O)C5CCNCC5)cc4)nc3)cc2s1)c1cccc(F)c1 [N-(6-((E)-2-(2-(4-(piperidin-4-ylsulfonyl)phenylamino)pyrimidin-5-yl)vinyl)benzo[d]thiazol-2-yl)-3-fluorobenzamide Hydrochloride]
10,113,CN(C)CCN(C1CCNCC1)S(=O)(=O)c1ccc(Nc2ncc(/C=C/c3cccc4[nH]ncc34)cn2)cc1 [N-[2-(dimethylamino)ethyl]-4-({5-[(E)-2-(1H-indazol-4-yl)vinyl]pyrimidin-2-yl}amino)-N-piperidin-4-ylbenzenesulfonamide]
25,182,CN(C)CCN(C1CCNCC1)S(=O)(=O)c1ccc(Nc2ncc(/C=C/c3cccc4[nH]ccc34)cn2)cc1 [N-[2-(dimethylamino)ethyl]-4-({5-[(E)-2-(1H-indol-4-yl)vinyl]pyrimidin-2-yl}amino)-N-piperidin-4-ylbenzenesulfonamide]
22200,4640,C=Cc1cnc(Nc2ccc(S(=O)(=O)N3CCNCC3)c(N3CCNCC3)c2)nc1 [N-[3-piperazin-1-yl-4-(piperazin-1-ylsulfonyl)phenyl]-5-vinylpyrimidin-2-amine trifluoroacetic acid salt]
3800,1230,O=S(=O)(c1ccc(Nc2ncc(/C=C/c3ccc(-c4cn[nH]c4)cc3)cn2)cc1)N1CCNCC1 [N-[4-(piperazin-1-ylsulfonyl)phenyl]-5-{(E)-2-[4-(1H-pyrazol-4-yl)phenyl]vinyl}pyrimidin-2-amine]
38,163,"O=S(=O)(c1ccc(Nc2ncc(/C=C/c3ccnc4[nH]ccc34)cn2)cc1)C1CCNCC1 [N-[4-(piperidin-4-ylsulfonyl)phenyl]-5-[(E)-2-(1H-pyrrolo[2,3-b]pyridin-4-yl)vinyl]pyrimidin-2-amine]"
12,2000,O=C(Nc1ccc(Cl)c(/C=C/c2cnc(Nc3ccc(S(=O)(=O)C4CCNCC4)cc3)nc2)c1)c1cccc(C(F)(F)F)c1 [N-[4-Chloro-3-(2-{2-[4-(piperidine-4-sulfonyl)-phenylamino]-pyrimidin-5-yl}-vinyl)-phenyl]-3-trifluoromethyl-benzamide]
5110,5600,O=C(Nc1nc2ccc(/C=C/c3cnc(Nc4ccc(S(=O)(=O)N5CCNCC5)cc4)nc3)cc2s1)c1cccc(C(F)(F)F)c1 [N-[6-(2-{2-[4-(Piperazine-1-sulfonyl)-phenylamino]-pyrimidin-5-yl]-vinyl)-benzothiazol-2-yI]-3-trifluoromethyl-benzamide]
5.1,173,NC1CCN(S(=O)(=O)c2ccc(Nc3ncc(/C=C/c4cccc5[nH]ncc45)cn3)cc2)CC1 [N-{4-[(4-aminopiperidin-1-yl)sulfonyl]phenyl}-5-[(E)-2-(1H-indazol-4-yl)vinyl]pyrimidin-2-amine]
13,347,NC1CCN(S(=O)(=O)c2ccc(Nc3ncc(/C=C/c4cccc5[nH]ccc45)cn3)cc2)CC1 [N-{4-[(4-aminopiperidin-1-yl)sulfonyl]phenyl}-5-[(E)-2-(1H-indol-4-yl)vinyl]pyrimidin-2-amine]
13700,2790,NC1Cc2ccc(/C=C/c3cnc(Nc4ccc(S(=O)(=O)N5CCC(CO)CC5)cc4)nc3)cc2C1 (stereo not shown) [[1-(4-{5-[2-(2-Amino-indan-5-yl)-vinyl]-pyrimidin-2-ylamino}-benzenesulfonyl)-piperidin-4-yl]-methanol]
61,21,O=S(=O)(c1ccc(Nc2ncc(/C=C/c3cc(Cl)cc4[nH]nnc34)cn2)cc1)N1CCNCC1 [[4-(Piperazine-1-sulfonyl)-phenyl]-{5-[2-(6-chloro-1H-benzotriazol-4-yl)-vinyl]-pyrimidin-2-yl}-amine]
269,89,O=S(=O)(c1ccc(Nc2ncc(/C=C/c3cc(C(F)(F)F)cc4[nH]nnc34)cn2)cc1)N1CCNCC1 [[4-(Piperazine-1-sulfonyl)-phenyl]-{5-[2-(6-trifluoromethyl-1H-benzotriazol-4-yl)-vinyl]-pyrimidin-2-yl}-amine]
12,184,"O=S(=O)(c1ccc(Nc2ncc(/C=C/c3cccc4[nH]ncc34)cn2)cc1)N1CCCNCC1 [[4-([1,4]Diazepane-1-sulfonyl)-phenyl]-{5-[2-(1H-indazol-4-yl)-vinyl]-pyrimidin-2-yl}-amine]"
13,195,"O=S(=O)(c1ccc(Nc2ncc(/C=C/c3cccc4[nH]ccc34)cn2)cc1)N1CCCNCC1 [[4-([1,4]Diazepane-1-sulfonyl)-phenyl]-{5-[2-(1H-indol-4-yl)-vinyl]-pyrimidin-2-yl}-amine]"
41,16,"O=S(=O)(c1ccc(Nc2ncc(/C=C/c3cc(Cl)cc4[nH]nnc34)cn2)cc1)N1CCCNCC1 [[4-([1,4]Diazepane-1-sulfonyl)-phenyl]-{5-[2-(6-chloro-1H-benzotriazol-4-yl)-vinyl]-pyrimidin-2-yl}-amine]"
59,67,"O=S(=O)(c1ccc(Nc2ncc(/C=C/c3cc(C(F)(F)F)cc4[nH]nnc34)cn2)cc1)N1CCCNCC1 [[4-([1,4]Diazepane-1-sulfonyl)-phenyl]-{5-[2-(6-trifluoromethyl-1H-benzotriazol-4-yl)-vinyl]-pyrimidin-2-yl}-amine]"
113,96,"NC(=O)CN(C1CCNCC1)S(=O)(=O)c1ccc(Nc2ncc(/C=C/c3ccc4nc(N)sc4c3)cn2)cc1 [[4-({5-[(E)-2-(2-amino-1,3-benzothiazol-6-yl)vinyl]pyrimidin-yl}amino)phenyl]sulfonyl}-N2-piperidin-4-ylglycinamide]"
44,289,O=S(=O)(c1ccc(Nc2ncc(/C=C/c3cccc4[nH]ncc34)cn2)cc1)N1CCNCC1 [{5-[2-(1H-Indazol-4-yl)-vinyl]-pyrimidin-2-yl}-[4-(piperazine-1-sulfonyl)-phenyl]-amine]
163,262,O=S(=O)(c1ccc(Nc2ncc(/C=C/c3ccc4[nH]ncc4c3)cn2)cc1)C1CCNCC1 [{5-[2-(1H-Indazol-5-yl)-vinyl]-pyrimidin-2-yl}-[4-(piperidine-4-sulfonyl)-phenyl]-amine]
86,2600,C(=C\c1cccc2[nH]ccc12)/c1cnc(Nc2cccc(N3CCNCC3)c2)nc1 [{5-[2-(1H-Indol-4-yl)-vinyl]-pyrimidin-2-yl}-(3-piperazin-1-yl-phenyl)-amine]
42,1320,C(=C\c1cccc2[nH]ccc12)/c1cnc(Nc2ccc(C3CCNCC3)cc2)nc1 [{5-[2-(1H-Indol-4-yl)-vinyl]-pyrimidin-2-yl}-(4-piperidin-4-yl-phenyl)-amine]
54,488,O=S(=O)(CCCN1CCNCC1)c1ccc(Nc2ncc(/C=C/c3cccc4[nH]ccc34)cn2)cc1 [{5-[2-(1H-Indol-4-yl)-vinyl]-pyrimidin-2-yl}-[4-(3-piperazin-1-yl-propane-1-sulfonyl)-phenyl]-amine]
37,138,O=S(=O)(c1ccc(Nc2ncc(/C=C/c3ccc4[nH]ccc4c3)cn2)cc1)C1CCNCC1 [{5-[2-(1H-Indol-5-yl)-vinyl]-pyrimidin-2-yl}-[4-(piperidine-4-sulfonyl)-phenyl]-amine]
172,664,COc1cccc(/C=C/c2cnc(Nc3ccc(S(=O)(=O)C4CCNCC4)cc3)nc2)c1 [{5-[2-(3-Methoxy-phenyl)-vinyl]-pyrimidin-2-yl}-[4-piperidine-4-sulfonyl)-phenyl]-amine]
